Laboratory results: patent US12692238B2, “Substituted pyridazinone herbicides” (FMC CORPORATION, priority 2020, dated 2026)

Columns and labels:
Assay type in all cases: in vivo
[1] = test system: foxtail, giant (giant foxtail, Setaria faberi); experiment: Test A preemergence, foxtail, giant; settings: 0 to 100 scale, 10 days
Excerpt: (§1) Seeds of plant species selected from barnyardgrass (Echinochloa crus-galli), blackgrass (Alopecurus myosuroides), corn (Zea mays), foxtail, giant (giant foxtail, Setaria faberi), foxtail, green (green foxtail, Setaria viridis), goosegrass (Eleusine indica), kochia (Bassia scoparia), oat, wild (wild oat, Avena fatua), palmer amaranth (pigweed, palmer, Amaranthus palmeri), redroot pigweed (Amaranthus retroflexus), ragweed (common ragweed, Ambrosia artemisiifolia), ryegrass, Italian (Italian ryegrass, Lolium multiflorum), and soybean (Glycine max) were planted into a blend of loam soil and sand and treated preemergence with a directed soil spray using test chemicals formulated in a non-phytotoxic solvent mixture which included a surfactant.
(§2) At the same time, plants selected from these crop and weed species and also wheat (Triticum aestivum), galium (catchweed bedstraw, Galium aparine) and horseweed (Erigeron canadensis) were planted in pots containing the same blend of loam soil and sand and treated with postemergence applications of test chemicals formulated in the same manner. Plants ranged in height from 2 to 10 cm and were in the one- to two-leaf stage for the postemergence treatment. Treated plants and untreated controls were maintained in a greenhouse for 10 days, after which time all treated plants were compared to untreated controls and visually evaluated for injury. Plant response ratings, summarized in Table A, are based on a 0 to 100 scale where 0 is no effect and 100 is complete control. A dash (-) response means no test result.

[2] = test system: ryegrass, Italian (Italian ryegrass, Lolium multiflorum); experiment: Test A postemergence, ryegrass, Italian; settings: 10 days
Excerpt: as §1, §2

[3] = test system: wheat (Triticum aestivum); experiment: Test A postemergence, wheat; settings: 10 days
Excerpt: as §1, §2

[4] = test system: redroot pigweed (Amaranthus retroflexus); experiment: Test A postemergence, redroot pigweed; settings: 10 days
Excerpt: as §1, §2

[5] = test system: ragweed (common ragweed, Ambrosia artemisiifolia); experiment: Test A preemergence, ragweed; settings: 0 to 100 scale, 10 days
Excerpt: as §1, §2

rice (Oryza sativa) = experiment: Test B flooded paddy test, rice; settings: 250 g ai/ha, Flood; visually evaluated after 10 to 14 days
Description: (§3) Plant species in the flooded paddy test selected from barnyardgrass (Echinochloa crus-galli), ducksalad (Heteranthera limosa), rice (Oryza sativa), and sedge, umbrella (small-flower umbrella sedge, Cyperus difformis) were grown to the 2-leaf stage for testing. At time of treatment, test pots were flooded to 3 cm above the soil surface, treated by application of test compounds directly to the paddy water, and then maintained at that water depth for the duration of the test. Treated plants and controls were maintained in a greenhouse for 10 to 14 days, after which time all species were compared to controls and visually evaluated. Plant response ratings, summarized in Table B, are based on a scale of 0 to 100 where 0 is no effect and 100 is complete control. A dash (-) response means no test result.

[6] = test system: ducksalad (Heteranthera limosa); experiment: Test B flooded paddy test, ducksalad; settings: 250 g ai/ha, Flood; visually evaluated after 10 to 14 days
Description: as §3

kochia (Bassia scoparia) [7] = experiment: Test A postemergence, kochia; settings: 10 days
Excerpt: as §1, §2

[8] = test system: ryegrass, Italian (Italian ryegrass, Lolium multiflorum); experiment: Test A preemergence, ryegrass, Italian; settings: 0 to 100 scale, 10 days
Excerpt: as §1, §2

kochia (Bassia scoparia) [9] = experiment: Test A preemergence, kochia; settings: 0 to 100 scale, 10 days
Excerpt: as §1, §2

[10] = test system: galium (catchweed bedstraw, Galium aparine); experiment: Test A postemergence, galium; settings: 10 days
Excerpt: as §1, §2

[11] = test system: foxtail, giant (giant foxtail, Setaria faberi); experiment: Test A postemergence, foxtail, giant; settings: 10 days
Excerpt: as §1, §2

[12] = test system: blackgrass (Alopecurus myosuroides); experiment: Test A postemergence, blackgrass; settings: 10 days
Excerpt: as §1, §2

[13] = test system: barnyardgrass (Echinochloa crus-galli); experiment: Test A preemergence, barnyardgrass; settings: 10 days
Excerpt: as §1, §2

[14] = test system: redroot pigweed (Amaranthus retroflexus); experiment: Test A preemergence, redroot pigweed; settings: 0 to 100 scale, 10 days
Excerpt: as §1, §2

[15] = test system: sedge, umbrella (small-flower umbrella sedge, Cyperus difformis); experiment: Test B flooded paddy test, sedge, umbrella; settings: 250 g ai/ha, Flood; visually evaluated after 10 to 14 days
Description: as §3

corn (Zea mays) = experiment: Test A postemergence, corn; settings: 10 days
Excerpt: as §1, §2

[16] = test system: barnyardgrass (Echinochloa crus-galli); experiment: Test B flooded paddy test, barnyardgrass; settings: 250 g ai/ha, Flood; visually evaluated after 10 to 14 days
Description: as §3

[17] = test system: ragweed (common ragweed, Ambrosia artemisiifolia); experiment: Test A postemergence, ragweed; settings: 10 days
Excerpt: as §1, §2

[18] = test system: barnyardgrass (Echinochloa crus-galli); experiment: Test A postemergence, barnyardgrass; settings: 10 days
Excerpt: as §1, §2

[19] = 31 g ai/ha, postemergence, 0 to 100 scale (0 no effect, 100 complete control)
[20] = Postemergence, 125 g ai/ha, 0 to 100 scale
[21] = 125 g ai/ha, 0 to 100 scale (0 no effect, 100 complete control)

Row | Compound | Plant response rating, Foxtail, Giant ([1]; 31 g ai/ha) | Plant response rating, Foxtail, Giant ([1]; 125 g ai/ha) | Plant response rating, Ryegrass, Italian [2, 19] | Plant response rating, Ryegrass, Italian [2, 20] | Plant response rating, Wheat [3, 19] | Plant response rating, Wheat [3, 20] | Plant response rating, Pigweed, Redroot [4, 19] | Plant response rating, Pigweed, Redroot [4, 20] | Plant response rating, Ragweed ([5]; 31 g ai/ha) | Plant response rating, Ragweed ([5]; 125 g ai/ha) | Plant response rating, Rice (0 to 100 scale where 0 is no effect and 100 is complete control) (rice (Oryza sativa)) | Plant response rating, Ducksalad (0 to 100 scale where 0 is no effect and 100 is complete control) [6] | Plant response rating, Kochia (kochia (Bassia scoparia) [7]; [19]) | Plant response rating, Kochia (kochia (Bassia scoparia) [7]; [20]) | Plant response rating, Ryegrass, Italian ([8]; 31 g ai/ha) | Plant response rating, Ryegrass, Italian ([8]; 125 g ai/ha) | Plant response rating, Kochia (kochia (Bassia scoparia) [9]; 31 g ai/ha) | Plant response rating, Kochia (kochia (Bassia scoparia) [9]; 125 g ai/ha) | Plant response rating, Galium [10, 19] | Plant response rating, Galium [10, 20] | other results
1 | COc1cc(OC)c2cc3ccc(F)cc3c(-c3c(OCOC(C)=O)c(C)nn(C)c3=O)c2c1 [Compound 25] | 0 | 0 | 0 | 0 | 0 | 0 | 80 | 90 | 0 | 0 | 0 | 0 | 0 | 10 | 0 | 0 | 0 | 0 | 50 | 60 | Plant response rating, Foxtail, Giant [11, 19]: 0; Plant response rating, Foxtail, Giant [11, 20]: 20; Plant response rating, Blackgrass [12, 19]: 0; Plant response rating, Blackgrass [12, 20]: 10; Plant response rating, Barnyardgrass ([13]; 31 g ai/ha, 0 to 100 scale): 0; Plant response rating, Barnyardgrass [13, 21]: 0; Plant response rating, Pigweed, Redroot ([14]; 31 g ai/ha): 0; Plant response rating, Pigweed, Redroot ([14]; 125 g ai/ha): 30; Plant response rating, Sedge, Umbrella (0 to 100 scale where 0 is no effect and 100 is complete control) [15]: 0; Plant response rating, Corn (corn (Zea mays); [19]): 0; Plant response rating, Corn (corn (Zea mays); [20]): 20; Plant response rating, Barnyardgrass (0 to 100 scale where 0 is no effect and 100 is complete control) [16]: 0; Plant response rating, Ragweed [17, 19]: 0; Plant response rating, Ragweed [17, 20]: 0; Plant response rating, Barnyardgrass [18, 19]: 0; Plant response rating, Barnyardgrass [18, 20]: 10
2 | COc1ccc2cc3ccc(F)cc3c(-c3c(OCOC(C)=O)c(C)nn(C)c3=O)c2c1 [Compound 26] | 20 | 90 | 20 | 90 | 20 | 60 | 100 | 100 | 30 | 30 | 10 | 80 | 40 | 80 | 10 | 90 | 20 | 90 | 80 | 100 | Plant response rating, Foxtail, Giant [11, 19]: 20; Plant response rating, Foxtail, Giant [11, 20]: 70; Plant response rating, Blackgrass [12, 19]: 0; Plant response rating, Blackgrass [12, 20]: 10; Plant response rating, Barnyardgrass ([13]; 31 g ai/ha, 0 to 100 scale): 10; Plant response rating, Barnyardgrass [13, 21]: 70; Plant response rating, Pigweed, Redroot ([14]; 31 g ai/ha): 100; Plant response rating, Pigweed, Redroot ([14]; 125 g ai/ha): 100; Plant response rating, Sedge, Umbrella (0 to 100 scale where 0 is no effect and 100 is complete control) [15]: 85; Plant response rating, Corn (corn (Zea mays); [19]): 0; Plant response rating, Corn (corn (Zea mays); [20]): 10; Plant response rating, Barnyardgrass (0 to 100 scale where 0 is no effect and 100 is complete control) [16]: 60; Plant response rating, Ragweed [17, 19]: 90; Plant response rating, Ragweed [17, 20]: 100; Plant response rating, Barnyardgrass [18, 19]: 20; Plant response rating, Barnyardgrass [18, 20]: 40
3 | CC(=O)OCOc1c(C)nn(C)c(=O)c1-c1c2cc(F)ccc2cc2c(C)cc(C)cc12 [Compound 27] | 0 | 70 | 100 | 100 | 0 | 0 | 100 | 100 | 50 | 100 | 15 | 65 | 10 | 70 | 10 | 90 | 0 | 80 | 70 | 100 | Plant response rating, Foxtail, Giant [11, 19]: 0; Plant response rating, Foxtail, Giant [11, 20]: 30; Plant response rating, Blackgrass [12, 19]: 0; Plant response rating, Blackgrass [12, 20]: 0; Plant response rating, Barnyardgrass ([13]; 31 g ai/ha, 0 to 100 scale): 0; Plant response rating, Barnyardgrass [13, 21]: 30; Plant response rating, Pigweed, Redroot ([14]; 31 g ai/ha): 100; Plant response rating, Pigweed, Redroot ([14]; 125 g ai/ha): 100; Plant response rating, Sedge, Umbrella (0 to 100 scale where 0 is no effect and 100 is complete control) [15]: 65; Plant response rating, Corn (corn (Zea mays); [19]): 0; Plant response rating, Corn (corn (Zea mays); [20]): 10; Plant response rating, Barnyardgrass (0 to 100 scale where 0 is no effect and 100 is complete control) [16]: 0; Plant response rating, Ragweed [17, 19]: 90; Plant response rating, Ragweed [17, 20]: 90; Plant response rating, Barnyardgrass [18, 19]: 20; Plant response rating, Barnyardgrass [18, 20]: 30
4 | CC(=O)OCOc1c(C)nn(C)c(=O)c1-c1c2cc(C)ccc2cc2c(F)cc(C)cc12 [Compound 29] | 0 | 20 | 40 | 60 | 0 | 0 | 100 | 100 | 90 | 90 | 0 | 95 | 60 | 100 | 0 | 60 | 20 | 100 | 90 | 100 | Plant response rating, Foxtail, Giant [11, 19]: 20; Plant response rating, Foxtail, Giant [11, 20]: 20; Plant response rating, Blackgrass [12, 19]: 0; Plant response rating, Blackgrass [12, 20]: 20; Plant response rating, Barnyardgrass ([13]; 31 g ai/ha, 0 to 100 scale): 0; Plant response rating, Barnyardgrass [13, 21]: 70; Plant response rating, Pigweed, Redroot ([14]; 31 g ai/ha): 100; Plant response rating, Pigweed, Redroot ([14]; 125 g ai/ha): 100; Plant response rating, Sedge, Umbrella (0 to 100 scale where 0 is no effect and 100 is complete control) [15]: 98; Plant response rating, Corn (corn (Zea mays); [19]): 0; Plant response rating, Corn (corn (Zea mays); [20]): 0; Plant response rating, Barnyardgrass (0 to 100 scale where 0 is no effect and 100 is complete control) [16]: 55; Plant response rating, Ragweed [17, 19]: 100; Plant response rating, Ragweed [17, 20]: 100; Plant response rating, Barnyardgrass [18, 19]: 20; Plant response rating, Barnyardgrass [18, 20]: 90
